Columns and labels:
[1] = test system: trypsin; assay: Inhibition of trypsin-catalyzed hydrolysis of Nα-Benzoyl-L-arginine 4-nitroanilide hydrochloride in vitro; format: biochemical; details: pH 7.4, 37° C.; for Percent Nα-Benzoyl-L-arginine 4-nitroanilide hydrochloride remaining: trypsin 2,000 BAEE
Experimental: This example describes in vitro experiments with a compound of the disclosure to provide a mechanism of overdose protection.
The effect of increasing concentrations of compounds 2 and 3 on the rate and extent of the trypsin-catalyzed hydrolysis of a commercially available trypsin substrate Nα-Benzoyl-L-arginine 4-nitroanilide hydrochloride was evaluated in the presence of trypsin (2,000 BAEE activity) in a pH 7.4 phosphate buffer at 37° C. in vitro. Both buffer alone (i.e. no trypsin) and trypsin (i.e. no compound 2 or 3) controls were run contemporaneously.

[2] = Pharmacokinetics of delivered hydrocodone after increasing oral doses in dogs; format: in vivo
Experimental: The effect of increasing oral doses of compounds 2 and 3 on the pharmacokinetics of delivered hydrocodone (i.e. measured plasma hydrocodone concentrations vs. time) was evaluated in dogs. Specific pharmacokinetics parameters of the delivered opioid were calculated (e.g. Cmax, Tmax, AUC) and are presented below in the Table below.

[3] = test system: opioid receptors; details: after oral doses; cited from earlier work
[4] = hydrochloride salt; cited from earlier work
[5] = oral administration; cited from earlier work

COc1ccc2c3c1O[C@H]1C(OC(=O)N4CCC(C(=O)NCCCC[C@H](NC(=O)OCc5ccccc5)C(=O)NCCOc5ccc(C(=O)Oc6ccc7cc(C(=N)N)ccc7c6)cc5)CC4CNC(=O)[C@@H](CCCNC(=N)N)NC(=O)CNC(C)=O)=CC[C@H]4[C@@H](C2)N(C)CC[C@]314 (stereo partly shown) [Compound 2]
Trypsin inhibition with increasing compound concentration ([1]; 1 uM to 1 mM, result in words): progressively inhibit trypsin in a concentration dependent manner | Percent Nα-Benzoyl-L-arginine 4-nitroanilide hydrochloride remaining ([1]; compound 1 uM, 2 min): 100% | Percent Nα-Benzoyl-L-arginine 4-nitroanilide hydrochloride remaining ([1]; compound 1 uM, 13 min): 39% | Percent Nα-Benzoyl-L-arginine 4-nitroanilide hydrochloride remaining ([1]; compound 1 uM, 24 min): 0% | Percent Nα-Benzoyl-L-arginine 4-nitroanilide hydrochloride remaining ([1]; compound 1 uM, 80 min): 0% | Percent Nα-Benzoyl-L-arginine 4-nitroanilide hydrochloride remaining ([1]; compound 1 uM, 102 min): 0% | Percent Nα-Benzoyl-L-arginine 4-nitroanilide hydrochloride remaining ([1]; compound 1 uM, 119 min): 0% | Percent Nα-Benzoyl-L-arginine 4-nitroanilide hydrochloride remaining ([1]; compound 1 uM, 234 min): 0% | Percent Nα-Benzoyl-L-arginine 4-nitroanilide hydrochloride remaining ([1]; compound 10 uM, 2 min): 100% | Percent Nα-Benzoyl-L-arginine 4-nitroanilide hydrochloride remaining ([1]; compound 10 uM, 13 min): 98% | Percent Nα-Benzoyl-L-arginine 4-nitroanilide hydrochloride remaining ([1]; compound 10 uM, 24 min): 96% | Percent Nα-Benzoyl-L-arginine 4-nitroanilide hydrochloride remaining ([1]; compound 10 uM, 80 min): 94% | Percent Nα-Benzoyl-L-arginine 4-nitroanilide hydrochloride remaining ([1]; compound 10 uM, 102 min): 93% | Percent Nα-Benzoyl-L-arginine 4-nitroanilide hydrochloride remaining ([1]; compound 10 uM, 119 min): 94% | Percent Nα-Benzoyl-L-arginine 4-nitroanilide hydrochloride remaining ([1]; compound 10 uM, 234 min): 87% | Percent Nα-Benzoyl-L-arginine 4-nitroanilide hydrochloride remaining ([1]; compound 100 uM, 2 min): 100% | Percent Nα-Benzoyl-L-arginine 4-nitroanilide hydrochloride remaining ([1]; compound 100 uM, 13 min): 98% | Percent Nα-Benzoyl-L-arginine 4-nitroanilide hydrochloride remaining ([1]; compound 100 uM, 24 min): 100% | Percent Nα-Benzoyl-L-arginine 4-nitroanilide hydrochloride remaining ([1]; compound 100 uM, 80 min): 99% | Percent Nα-Benzoyl-L-arginine 4-nitroanilide hydrochloride remaining ([1]; compound 100 uM, 102 min): 99% | Percent Nα-Benzoyl-L-arginine 4-nitroanilide hydrochloride remaining ([1]; compound 100 uM, 119 min): 99% | Percent Nα-Benzoyl-L-arginine 4-nitroanilide hydrochloride remaining ([1]; compound 100 uM, 234 min): 99% | Percent Nα-Benzoyl-L-arginine 4-nitroanilide hydrochloride remaining ([1]; compound 1 mM, 2 min): 100% | Percent Nα-Benzoyl-L-arginine 4-nitroanilide hydrochloride remaining ([1]; compound 1 mM, 13 min): 100% | Percent Nα-Benzoyl-L-arginine 4-nitroanilide hydrochloride remaining ([1]; compound 1 mM, 24 min): 99% | Percent Nα-Benzoyl-L-arginine 4-nitroanilide hydrochloride remaining ([1]; compound 1 mM, 80 min): 100% | Percent Nα-Benzoyl-L-arginine 4-nitroanilide hydrochloride remaining ([1]; compound 1 mM, 102 min): 100% | Percent Nα-Benzoyl-L-arginine 4-nitroanilide hydrochloride remaining ([1]; compound 1 mM, 119 min): 100% | Percent Nα-Benzoyl-L-arginine 4-nitroanilide hydrochloride remaining ([1]; compound 1 mM, 234 min): 100% | Release of hydrocodone in vivo with increasing oral doses ([2]; increasing oral doses, dogs, result in words): progressively attenuate the release of hydrocodone in vivo | AUC0-8 h of hydrocodone in dog plasma ([2]; oral dose 1.66 umol/kg): 7.79 ng·h/mL | Maximum concentration (Cmax) of hydrocodone in dog plasma ([2]; oral dose 1.66 umol/kg): 2.87 ng/mL HC | Time of maximum concentration (Tmax) of hydrocodone in dog plasma ([2]; oral dose 1.66 umol/kg): 0.96 h | AUC0-8 h of hydrocodone in dog plasma ([2]; oral dose 5 umol/kg): 27 ng·h/mL | Maximum concentration (Cmax) of hydrocodone in dog plasma ([2]; oral dose 5 umol/kg): 6.49 ng/mL HC | Time of maximum concentration (Tmax) of hydrocodone in dog plasma ([2]; oral dose 5 umol/kg): 1.38 h | AUC0-8 h of hydrocodone in dog plasma ([2]; oral dose 10 umol/kg): 37.68 ng·h/mL | Maximum concentration (Cmax) of hydrocodone in dog plasma ([2]; oral dose 10 umol/kg): 8.37 ng/mL HC | Time of maximum concentration (Tmax) of hydrocodone in dog plasma ([2]; oral dose 10 umol/kg): 2.08 h | AUC0-8 h of hydrocodone in dog plasma ([2]; oral dose 35 umol/kg): 64.38 ng·h/mL | Maximum concentration (Cmax) of hydrocodone in dog plasma ([2]; oral dose 35 umol/kg): 11.87 ng/mL HC | Time of maximum concentration (Tmax) of hydrocodone in dog plasma ([2]; oral dose 35 umol/kg): 2.13 h

C[C@H]1[C@H]2Cc3ccc(O)cc3[C@]1(C)CCN2CC1CC1 [cyclazocine]
Duration of action [3]: ~24 h

O=C1CC[C@@]2(O)[C@H]3Cc4ccc(O)c5c4[C@@]2(CCN3CC2CC2)[C@H]1O5 [naltrexone]
Solubility in water [4]: about 100 mg/mL | Oral bioavailability [5]: 5-40% | Duration of action [3]: ~24 h
